From US20240139333A1, “2,6-DICHLOROPHENYL ESTER COMPOUNDS AND USE THEREOF” (Fusion Pharmaceuticals Inc., priority 2021, published 2024)

Key:
[1] = Comparative active ester reactivity study with HOA nucleophile (benzhydroxamic acid); conditions: Benzhydroxamic Acid 1 eq., 22±2° C.
Protocol: (§1) General Experimental Protocol for Comparative Active Ester Reactivity Study with HOPO or HOA Nucleophiles
(§2) To a 4 mL scintillation vial containing Compound A-E (in respective experiments; 1 eq.) was added a stir bar followed by 150 μL of HPLC grade acetonitrile. In another 4 mL scintillation vial containing a respective nucleophile (1 eq.) was added 280 μL HPLC grade water. The solutions were combined and allowed to stir at room temperature (22±2° C.) for 4 hours. Timed aliquots at time (T)=15, 30, 60, 120 and 240 minutes were taken and analyzed by HPLC-MS using elution method 1 (Table 1).

DMSO stability study = assay type: physicochemical
Protocol: To a 4 mL scintillation vial containing Compound A-E (in respective experiments; 4 mg) was added a stir bar followed by 500 μL of anhydrous dimethyl sulfoxide and was allowed to stir at room temperature (22±2° C.) for 4 hours. Timed aliquots at time (T)=15, 30, 60, 120 and 240 minutes were taken, dissolved in water to achieve 2% DMSO composition and analyzed by HPLC-MS using elution method 1 (Table 5).

pH stability study = assay type: physicochemical; conditions: 20° C.
Protocol: To a 4 mL scintillation vial containing Compound A-E (in respective experiments; 0.8 mg) was added 4 mL of either a pH 3, pH 5 pH 7 or pH 9 buffer to create a 0.2 mg/mL solution. 2 mL of this solution was added to a 2 mL HPLC vial and placed in the auto sampler of an HPLC-MS at 20° C. Timed aliquots at time (T)=15, 30, 60, 120, 240 and 480 minutes were taken and analyzed by HPLC-MS using elution method 1 (Table 3). […]
pH 3 Buffer: Citric acid/Na2HPO4 (79.45 mL 0.1 M-citric acid and 20.55 mL 0.2-Na2HPO4) pH 5 Buffer: Citric acid/Na2HPO4 (48.50 mL 0.1 M-citric acid and 51.50 mL 0.2-Na2HPO4) pH 7 Buffer: Citric acid/Na2HPO4 (17.65 mL 0.1 M-citric acid and 82.35 mL 0.2-Na2HPO4) pH 9 Buffer: Sodium Carbonate/Sodium Bicarbonate (10 mL 0.1 M-Na2CO3 and 90 mL 0.1-NaHCO3)

[2] = Comparative active ester reactivity study with HOPO nucleophile; conditions: 1,2-HOPO 1 eq., 22±2° C.
Protocol: as §1, §2

[3] = Nucleophilic reactivity study with L-Lysine; conditions: L-Lysine 5 equiv, 22±2° C.
Protocol: General Experimental Protocol for Nucleophilic Reactivity Study with L-Lysine
To a 4 mL scintillation vial containing Compound A-E (in respective experiments; 1 eq.) was added a stir bar followed by 70 μL of HPLC grade acetonitrile. In another 4 mL scintillation vial containing L-Lysine monohydrochloride (5 eq.) was added 130 μL HPLC grade water followed by diisopropylethylamine (5 eq.). The solutions were combined and allowed to stir at room temperature (22±2° C.). Timed aliquots at time (T)=15, 30, 60 and 120 minutes were taken and analyzed by HPLC-MS using elution method 1 (Table 2).

[4] = Comparative active ester reactivity study with HOA nucleophile (N-hydroxy-N-methylbenzamide); conditions: N-Hydroxy-N-methylbenzamide 1 eq., 22±2° C.
Protocol: as §1, §2

[5] = Temperature stability study in H2O; assay type: physicochemical
Protocol: 20° C.: To a 4 mL scintillation vial containing Compound A-E (in respective experiments; 0.8 mg) was added 4 mL of HPLC grade water to create a 0.2 mg/mL solution. 2 mL of this solution was added to a 2 mL HPLC vial and placed in the auto sampler of an HPLC-MS at 20° C. Timed aliquots at time (T)=15, 30, 60, 120, 240 and 480 minutes were taken and analyzed by HPLC-MS using elution method 1 (Table 4).
50° C.: To a 4 mL scintillation vial containing Compound A-E (in respective experiments; 0.8 mg) was added a stir bar followed by 4 mL of HPLC grade water to create a 0.2 mg/mL solution. The vial was capped and allowed to stir in a 50° C. oil bath for 8 hours. Timed aliquots at time (T) =15, 30, 60, 120, 240 and 480 minutes were taken and analyzed by HPLC-MS using elution method 1 (Table 4).

In the case of `O=C(CCc1cccnc1)Oc1ccc([N+](=O)[O-])cc1` [Compound D, 4-Nitrophenyl-3-(pyridin-3-yl)propanoate], the “% Active Ester Remaining” value ([1]; 15 min) is reported as 96.49%, the “% Active Ester Remaining” value ([1]; 30 min) is reported as 84.28% and the “% Active Ester Remaining” value ([1]; 60 min) is reported as 74.58%. For the same molecule, the “% Active Ester Remaining” value ([1]; 120 min) was 57.07%, the “% Active Ester Remaining” value ([1]; 240 min) was 34.21% and the “% Active Ester Remaining in DMSO at 22 ± 2° C.” value (“% Active Ester Remaining in DMSO” for short) (DMSO stability study; 15 min) was 99.35%. The “% Active Ester Remaining in DMSO” value (DMSO stability study; 30 min) was 98.99%, the “% Active Ester Remaining in DMSO” value (DMSO stability study; 60 min) was 99.29% and the “% Active Ester Remaining in DMSO” value (DMSO stability study; 120 min) was 99.65%. For the same molecule, the “% Active Ester Remaining in DMSO” value (DMSO stability study; 240 min) was 99.31%, the “% Remaining” value (pH stability study; pH 3 buffer, 15 min) was 100% and the “% Remaining” value (pH stability study; pH 3 buffer, 30 min) was 99.74%. For the same molecule, the “% Remaining” value (pH stability study; pH 3 buffer, 60 min) was 99.57%, the “% Remaining” value (pH stability study; pH 3 buffer, 120 min) was 99.21% and the “% Remaining” value (pH stability study; pH 3 buffer, 240 min) was 98.55%. For the same molecule, the “% Remaining” value (pH stability study; pH 3 buffer, 480 min) was 97.20%, the “% Remaining” value (pH stability study; pH 5 buffer, 15 min) was 99.83% and the “% Remaining” value (pH stability study; pH 5 buffer, 30 min) was 99.54%. For the same molecule, the “% Remaining” value (pH stability study; pH 5 buffer, 60 min) was 99.19%, the “% Remaining” value (pH stability study; pH 5 buffer, 120 min) was 98.63% and the “% Remaining” value (pH stability study; pH 5 buffer, 240 min) was 97.52%. For the same molecule, the “% Remaining” value (pH stability study; pH 5 buffer, 480 min) was 94.89%, the “% Remaining” value (pH stability study; pH 7 buffer, 15 min) was 99.11% and the “% Remaining” value (pH stability study; pH 7 buffer, 30 min) was 98.00%. The “% Remaining” value (pH stability study; pH 7 buffer, 60 min) was 96.59%, the “% Remaining” value (pH stability study; pH 7 buffer, 120 min) was 94.83% and the “% Remaining” value (pH stability study; pH 7 buffer, 240 min) was 89.25%. The “% Remaining” value (pH stability study; pH 7 buffer, 480 min) was 78.56%, the “% Remaining” value (pH stability study; pH 9 buffer, 15 min) was 83.05% and the “% Remaining” value (pH stability study; pH 9 buffer, 30 min) was 61.77%. For the same molecule, the “% Remaining” value (pH stability study; pH 9 buffer, 60 min) was 42.40%, the “% Remaining” value (pH stability study; pH 9 buffer, 120 min) was 23.66% and the “% Remaining” value (pH stability study; pH 9 buffer, 240 min) was 14.96%. The “% Remaining” value (pH stability study; pH 9 buffer, 480 min) was 10.31%, the “% Active Ester Remaining” value ([2]; 15 min) was 99.18% and the “% Active Ester Remaining” value ([2]; 30 min) was 96.81%. The “% Active Ester Remaining” value ([2]; 60 min) was 93.29%, the “% Active Ester Remaining” value ([2]; 120 min) was 85.25% and the “% Active Ester Remaining” value ([2]; 240 min) was 75.07%. The “% Active Ester Remaining” value ([3]; 15 min) was 8.34%, the “% Active Ester Remaining” value ([3]; 30 min) was 0% and the “% Active Ester Remaining” value ([4]; 15 min) was 95.63%. The “% Active Ester Remaining” value ([4]; 30 min) was 90.98%, the “% Active Ester Remaining” value ([4]; 60 min) was 83.40% and the “% Active Ester Remaining” value ([4]; 120 min) was 65.46%. For the same molecule, the “% Active Ester Remaining” value ([4]; 240 min) was 41.73%, the “% Remaining” value ([5]; 20° C., 15 min) was 97.54% and the “% Remaining” value ([5]; 20° C., 30 min) was 96.41%. The “% Remaining” value ([5]; 20° C., 60 min) was 95.69%, the “% Remaining” value ([5]; 20° C., 120 min) was 94.78% and the “% Remaining” value ([5]; 20° C., 240 min) was 93.59%. The “% Remaining” value ([5]; 20° C., 480 min) was 91.31%, the “% Remaining” value ([5]; 50° C., 15 min) was 86.19% and the “% Remaining” value ([5]; 50° C., 30 min) was 77.18%. The “% Remaining” value ([5]; 50° C., 60 min) was 72.58%, the “% Remaining” value ([5]; 50° C., 120 min) was 67.54% and the “% Remaining” value ([5]; 50° C., 240 min) was 65.59%. For the same molecule, the “% Remaining” value ([5]; 50° C., 480 min) was 66.22%.
With `O=C(CCc1cccnc1)ON1C(=O)CCC1=O` [Compound E, 2,5-Dioxo-1-pyrrolidinyl 3-pyridinepropanoate] the “% Active Ester Remaining” value ([1]; 15 min) was 1.13%, the “% Active Ester Remaining” value ([1]; 30 min) was 0.85% and the “% Active Ester Remaining” value ([1]; 60 min) was 0.67%. The “% Active Ester Remaining” value ([1]; 120 min) was 0.49%, the “% Active Ester Remaining” value ([1]; 240 min) was 0.35% and the “% Active Ester Remaining in DMSO” value (DMSO stability study; 15 min) was 97.29%. For the same molecule, the “% Active Ester Remaining in DMSO” value (DMSO stability study; 30 min) was 97.13%, the “% Active Ester Remaining in DMSO” value (DMSO stability study; 60 min) was 96.83% and the “% Active Ester Remaining in DMSO” value (DMSO stability study; 120 min) was 94.53%. The “% Active Ester Remaining in DMSO” value (DMSO stability study; 240 min) was 91.57%, the “% Remaining” value (pH stability study; pH 3 buffer, 15 min) was 80.40% and the “% Remaining” value (pH stability study; pH 3 buffer, 30 min) was 59.68%. For the same molecule, the “% Remaining” value (pH stability study; pH 3 buffer, 60 min) was 44.51%, the “% Remaining” value (pH stability study; pH 3 buffer, 120 min) was 26.16% and the “% Remaining” value (pH stability study; pH 3 buffer, 240 min) was 8.98%. For the same molecule, the “% Remaining” value (pH stability study; pH 3 buffer, 480 min) was 1.00%, the “% Remaining” value (pH stability study; pH 5 buffer, 15 min) was 85.59% and the “% Remaining” value (pH stability study; pH 5 buffer, 30 min) was 52.98%. For the same molecule, the “% Remaining” value (pH stability study; pH 5 buffer, 60 min) was 33.12%, the “% Remaining” value (pH stability study; pH 5 buffer, 120 min) was 13.81% and the “% Remaining” value (pH stability study; pH 5 buffer, 240 min) was 2.33%. For the same molecule, the “% Remaining” value (pH stability study; pH 5 buffer, 480 min) was 0%, the “% Remaining” value (pH stability study; pH 7 buffer, 15 min) was 86.24% and the “% Remaining” value (pH stability study; pH 7 buffer, 30 min) was 44.91%. For the same molecule, the “% Remaining” value (pH stability study; pH 7 buffer, 60 min) was 19.80%, the “% Remaining” value (pH stability study; pH 7 buffer, 120 min) was 4.02% and the “% Remaining” value (pH stability study; pH 7 buffer, 240 min) was 0%. For the same molecule, the “% Remaining” value (pH stability study; pH 9 buffer, 15 min) was 6.98%, the “% Remaining” value (pH stability study; pH 9 buffer, 30 min) was 1.20% and the “% Remaining” value (pH stability study; pH 9 buffer, 60 min) was 0.74%. The “% Remaining” value (pH stability study; pH 9 buffer, 120 min) was 0%, the “% Active Ester Remaining” value ([2]; 15 min) was 15.47% and the “% Active Ester Remaining” value ([2]; 30 min) was 12.28%. The “% Active Ester Remaining” value ([2]; 60 min) was 11.06%, the “% Active Ester Remaining” value ([2]; 120 min) was 7.15% and the “% Active Ester Remaining” value ([2]; 240 min) was 3.69%. The “% Active Ester Remaining” value ([3]; 15 min) was 0%, the “% Active Ester Remaining” value ([4]; 15 min) was 32.07% and the “% Active Ester Remaining” value ([4]; 30 min) was 20.77%. The “% Active Ester Remaining” value ([4]; 60 min) was 11.58%, the “% Active Ester Remaining” value ([4]; 120 min) was 6.52% and the “% Active Ester Remaining” value ([4]; 240 min) was 4.21%. The “% Remaining” value ([5]; 20° C., 15 min) was 87.24%, the “% Remaining” value ([5]; 20° C., 30 min) was 78.45% and the “% Remaining” value ([5]; 20° C., 60 min) was 70.03%. The “% Remaining” value ([5]; 20° C., 120 min) was 54.46%, the “% Remaining” value ([5]; 20° C., 240 min) was 24.99% and the “% Remaining” value ([5]; 20° C., 480 min) was 4.50%. The “% Remaining” value ([5]; 50° C., 15 min) was 72.20%, the “% Remaining” value ([5]; 50° C., 30 min) was 47.31% and the “% Remaining” value ([5]; 50° C., 60 min) was 20.75%. The “% Remaining” value ([5]; 50° C., 120 min) was 3.50%, the “% Remaining” value ([5]; 50° C., 240 min) was 0.10% and the “% Remaining” value ([5]; 50° C., 480 min) was 0%.
